Assays:
Format in all cases: in vivo, human
renal cell carcinoma = assay: Example 2: patient with renal cell carcinoma and lung formations treated with rhodamine 6G; settings: Patient L, 43
Experimental: Three years previously the left kidney was removed and prophylactic chemotherapy was carried out to treat renal cell carcinoma. […] Severe dyspnea, diagnosis adynamia. Treatment was prescribed, including the use of a medicinal preparation having an anti-tumor action. […] After 4 weeks the dyspnea and pain had decreased. Blood analyses against the treatment background normalised over 3 months. A repeat course of treatment with the preparation was then prescribed, which was administered rectally in the form of a 1% suppository and also by inhalation for 6 months. Over the course of the treatment the tumor in the right kidney and the metastases in the lungs disappeared.

[1] = test system: Malignant glioblastoma of the left brain; assay: Example 4: patient with recurrent brain glioblastoma treated with rhodamine 6G intravenously
Experimental: Patient G. Diagnosis: Malignant glioblastoma of the left brain. Recurrence of cancer. Two years previously a tumor had been removed in connection with a brain glioblastoma. The patient complained of headaches, nausea and vomiting. […] Patient's condition moderately severe; pale skin. […] The procedure took 40 minutes. Subsequent procedures were carried out in exactly the same sequence twice a week. The course of treatment lasted 3 months. During the treatment the tumor reduced in size to 0.3×0.4 cm. After two infusions of the preparation the symptoms of nausea and pain had decreased. The preparation was administered over 6 months as a single dose once every 2 weeks.

[2] = test system: Primary cancer of the liver; assay: Example 5: patient with primary liver cancer treated with rhodamine 6G; parameters: Nuclear segments / Erythrocytes / Hemoglobin / Thrombocytes / Leukocytes / Amylase / Chlorine / Serum iron / Cholesterol / Total bilirubin / Bilirubin (line r8, above 'direct'): unit not given here; settings: for Creatinine / Cholesterol / Total bilirubin / Potassium / ALT / AST / Bilirubin (line r8, above 'direct') / Serum iron / Total protein / Amylase / Chlorine / LDG / Bilirubin (line r10, above 'indirect') / direct (line r9) / indirect (line r11) / Phosphatase, alk. / Erythrocytes / Hemoglobin / Leukocytes / Thrombocytes / Basophils / Eosinophils / Nuclear rods / ESR / Monocytes / Lymphocytes / Nuclear segments: Example 5, Patient L; for Cholesterol: normal 1.66-8.3; for Total bilirubin: normal 2.90-6.54; for Potassium: normal 3.5-6.0; for ALT / AST: normal 5-40; for Bilirubin (line r8, above 'direct'): normal 8.5-20.5; for Serum iron: normal 8.8-27.0; for Total protein: normal 65.0-85.0; for Amylase: normal 95-110.0; for Chlorine: normal 135.0-; for LDG: normal 225-450; for Bilirubin (line r10, above 'indirect') / direct (line r9): normal up to 25%; for indirect (line r11): normal up to 100; for Phosphatase, alk.: normal up to 104; for Basophils: normal 0-1%; for Eosinophils: normal 0-5; for Nuclear rods: normal 1-6%; for ESR: normal 1-15 mm/hr; for Monocytes: normal 2-9%; for Lymphocytes: normal 18-40%; for Nuclear segments: normal 45-70
Experimental: Patient […]. Diagnosis: Primary cancer of the liver. One and a half years before, resection of part of the right hepatic lobe on account of liver cell carcinoma. Patient complained of pain in the right hypochondrium, dyspnea, ascites, intermittent retention of stools. Patient's condition moderately severe, loss of appetite, jaundice. […] The patient underwent bougienation of the umbilical vein. […] Subsequent procedures were carried out in exactly the same way twice a week. Only the preparation was administered intravenously. The course of treatment lasted 3 months. During the treatment the tumor in the affected region decreased in size to 0.5×0.7 cm. After 4 months a connective tissue scar of size 0.2×0.3 cm remained at the site of the tumor in the liver.

[3] = test system: Recurring cancer of the right ovary; assay: Example 8: patient with recurring ovarian cancer treated with rhodamine 6G enema; settings: Patient T, 52; third day after start; enema 5 g per day
Experimental: In connection with the detection of carcinoma of the left ovary the patient underwent a hysterectomy.
After the operation the patient was given a 2-year course of chemotherapy. The patient subsequently complained of pain in the rectum and tenesmus.
Diagnosis: Recurring cancer of the right ovary.
In view of the ineffectiveness of continuing the chemotherapy, the patient was treated with the preparation in the form of an enema.

[4] = test system: Melanoma of the left lower leg; assay: Example 11: patient with melanoma treated with 5% rhodamine 6G ointment; settings: Patient Sh., 75

With “9-(2-ethoxycarbonyl)phenyl)-3,6-bis(ethylamino)2,7-dimethylxanthyl chloride [rhodamine 6G]” the dyspnea and pain (renal cell carcinoma; after 4 weeks, 12 drops 1% solution oral three times a day and microenema) was “decreased”, the body weight (renal cell carcinoma; after treatment) was “regained weight” and the “blood analyses against the treatment background” value (renal cell carcinoma; over 3 months) was “normalised”. For the same substance, the “tumor in the kidney and metastases in the lungs” value (renal cell carcinoma; over the course of treatment, before: mass 3.5×5.4×3.7 cm, four lung formations 2.0-2.3 cm) was “disappeared”, the “tumor on CT scan” value ([1]; after 9 months' treatment) was “no tumor could be detected” and the “symptoms of nausea and pain” value ([1]; after two infusions) was “decreased”. For the same substance, the Creatinine ([2]; 04 Feb. 2005) was 79 µM, the Cholesterol ([2]; 04 Feb. 2005) was 5.75 and the Total bilirubin ([2]; 04 Feb. 2005) was 8.4. For the same substance, the Potassium ([2]; 04 Feb. 2005) was 2.28, the ALT ([2]; 04 Feb. 2005) was 154.2 el and the AST ([2]; 04 Feb. 2005) was 103.8 el. For the same substance, the “Bilirubin (line r8, above 'direct')” value ([2]; 04 Feb. 2005) was 3.3, the Serum iron ([2]; 04 Feb. 2005) was 94.4 and the Total protein ([2]; 04 Feb. 2005) was 78. For the same substance, the Amylase ([2]; 04 Feb. 2005) was 102.8, the Chlorine ([2]; 04 Feb. 2005) was 114.31 and the LDG ([2]; 04 Feb. 2005) was 332 el. For the same substance, the “Bilirubin (line r10, above 'indirect')” value ([2]; 04 Feb. 2005) was 84%, the “direct (line r9)” value ([2]; 04 Feb. 2005) was 5.1% and the “indirect (line r11)” value ([2]; 04 Feb. 2005) was 89 el. The “Phosphatase, alk.” value ([2]; 04 Feb. 2005) was 4.55 el, the Creatinine ([2]; 07 Apr. 2005) was 67 µM and the Cholesterol ([2]; 07 Apr. 2005) was 7.03. It also gave a Total bilirubin ([2]; 07 Apr. 2005) of 8.0, a Potassium ([2]; 07 Apr. 2005) of 2.15 and an ALT ([2]; 07 Apr. 2005) of 40 el. The AST ([2]; 07 Apr. 2005) was 30.4 el, the “Bilirubin (line r8, above 'direct')” value ([2]; 07 Apr. 2005) was 2.0 and the Serum iron ([2]; 07 Apr. 2005) was 43.7. It also gave a Total protein ([2]; 07 Apr. 2005) of 64.34, an Amylase ([2]; 07 Apr. 2005) of 110.0 and a Chlorine ([2]; 07 Apr. 2005) of 134.2. For the same substance, the LDG ([2]; 07 Apr. 2005) was 362 el, the “Bilirubin (line r10, above 'indirect')” value ([2]; 07 Apr. 2005) was 90% and the “direct (line r9)” value ([2]; 07 Apr. 2005) was 6.0%. The “indirect (line r11)” value ([2]; 07 Apr. 2005) was 78.0 el, the “Phosphatase, alk.” value ([2]; 07 Apr. 2005) was 6.7 el and the Creatinine ([2]; 10 Nov. 2004) was 98 µM. The Cholesterol ([2]; 10 Nov. 2004) was 6.21, the Total bilirubin ([2]; 10 Nov. 2004) was 11.0 and the Potassium ([2]; 10 Nov. 2004) was 2.72. For the same substance, the ALT ([2]; 10 Nov. 2004) was 665.8 el, the AST ([2]; 10 Nov. 2004) was 554.5 el and the “Bilirubin (line r8, above 'direct')” value ([2]; 10 Nov. 2004) was 3.0. For the same substance, the Serum iron ([2]; 10 Nov. 2004) was 190.4, the Total protein ([2]; 10 Nov. 2004) was 43.43 and the Amylase ([2]; 10 Nov. 2004) was 114.0. For the same substance, the Chlorine ([2]; 10 Nov. 2004) was 114.20, the LDG ([2]; 10 Nov. 2004) was 879 el and the “Bilirubin (line r10, above 'indirect')” value ([2]; 10 Nov. 2004) was 82%. For the same substance, the “direct (line r9)” value ([2]; 10 Nov. 2004) was 8.0%, the “indirect (line r11)” value ([2]; 10 Nov. 2004) was 107.2 el and the “Phosphatase, alk.” value ([2]; 10 Nov. 2004) was 5.71 el. The Erythrocytes ([2]; 12 Nov. 2004) was 3.22, the Hemoglobin ([2]; 12 Nov. 2004) was 74 and the Leukocytes ([2]; 12 Nov. 2004) was 7.2. For the same substance, the Thrombocytes ([2]; 12 Nov. 2004) was 315, the Basophils ([2]; 12 Nov. 2004) was 1% and the Eosinophils ([2]; 12 Nov. 2004) was 1. It also gave a Nuclear rods ([2]; 12 Nov. 2004) of 1%, an ESR ([2]; 12 Nov. 2004) of 3.5 mm/hr and a Monocytes ([2]; 12 Nov. 2004) of 15%. It also gave a Lymphocytes ([2]; 12 Nov. 2004) of 9%, a Nuclear segments ([2]; 12 Nov. 2004) of 21 and an Erythrocytes ([2]; 14 Feb. 2005) of 4.37. The Hemoglobin ([2]; 14 Feb. 2005) was 117, the Leukocytes ([2]; 14 Feb. 2005) was 5.8 and the Thrombocytes ([2]; 14 Feb. 2005) was 286. The Eosinophils ([2]; 14 Feb. 2005) was 2, the Monocytes ([2]; 14 Feb. 2005) was 4% and the Lymphocytes ([2]; 14 Feb. 2005) was 23%. It also gave a Nuclear segments ([2]; 14 Feb. 2005) of 63, an Erythrocytes ([2]; 17 Apr. 2006) of 4.67 and a Hemoglobin ([2]; 17 Apr. 2006) of 123. It also gave a Leukocytes ([2]; 17 Apr. 2006) of 6.7, a Thrombocytes ([2]; 17 Apr. 2006) of 310 and a Basophils ([2]; 17 Apr. 2006) of 1%. The Eosinophils ([2]; 17 Apr. 2006) was 1, the ESR ([2]; 17 Apr. 2006) was 8.5 mm/hr and the Monocytes ([2]; 17 Apr. 2006) was 9%. For the same substance, the Lymphocytes ([2]; 17 Apr. 2006) was 37%, the Nuclear segments ([2]; 17 Apr. 2006) was 65 and the Erythrocytes ([2]; 19 Jan. 2005) was 3.60. It also gave a Hemoglobin ([2]; 19 Jan. 2005) of 80, a Leukocytes ([2]; 19 Jan. 2005) of 7.8 and a Thrombocytes ([2]; 19 Jan. 2005) of 362. It also gave an Eosinophils ([2]; 19 Jan. 2005) of 2, a Nuclear rods ([2]; 19 Jan. 2005) of 1% and a Monocytes ([2]; 19 Jan. 2005) of 4.3%. The Lymphocytes ([2]; 19 Jan. 2005) was 16%, the Nuclear segments ([2]; 19 Jan. 2005) was 44 and the Creatinine ([2]; 20 Dec. 2005) was 83 µM. It also gave a Cholesterol ([2]; 20 Dec. 2005) of 5.62, a Total bilirubin ([2]; 20 Dec. 2005) of 24.2 and a Potassium ([2]; 20 Dec. 2005) of 2.32. For the same substance, the ALT ([2]; 20 Dec. 2005) was 426 el, the AST ([2]; 20 Dec. 2005) was 432.9 el and the “Bilirubin (line r8, above 'direct')” value ([2]; 20 Dec. 2005) was 22.3. It also gave a Serum iron ([2]; 20 Dec. 2005) of 224.7, a Total protein ([2]; 20 Dec. 2005) of 49.90 and an Amylase ([2]; 20 Dec. 2005) of 140. For the same substance, the Chlorine ([2]; 20 Dec. 2005) was 115.3, the LDG ([2]; 20 Dec. 2005) was 556 el and the “Bilirubin (line r10, above 'indirect')” value ([2]; 20 Dec. 2005) was 96%. For the same substance, the “direct (line r9)” value ([2]; 20 Dec. 2005) was 11.9%, the “indirect (line r11)” value ([2]; 20 Dec. 2005) was 102 el and the “Phosphatase, alk.” value ([2]; 20 Dec. 2005) was 5.48 el. For the same substance, the “patient's complaints” value ([2]; Patient L, 64, at the present time) was “no complaints”, the blood analyses ([2]; Patient L, 64, during treatment) was “positive change” and the “severity of the pain” value [3] was “decreased”. For the same substance, the “decrease of sizes of the tumors” value ([4]; 5% ointment, over 2 months, before 5×7×9 cm) was 70% and the “recurrence of the melanoma” value ([4]; over 3 years) was “no recurrence”.

— patent US20100144854A1 (priority 2007, published 2010)
